Experiments:
rCYP4F2 = biological target: T1, rCYP4F2 (Homo sapiens, UniProt P78329); assay: Inhibition of 20-HETE formation at 250 or 500 nM in rCYP4F2 incubations; type: biochemical; settings: rCYP4F2 25 pmol/mL; for inhibition at 0.25 µM: 250 nM compound, read-out: rCYP4F2 % inh. @ 250 nM; for inhibition at 0.5 µM: 500 nM compound, read-out: rCYP4F2 % inh. @ 500 nM
T1 sequence (P78329 5-520): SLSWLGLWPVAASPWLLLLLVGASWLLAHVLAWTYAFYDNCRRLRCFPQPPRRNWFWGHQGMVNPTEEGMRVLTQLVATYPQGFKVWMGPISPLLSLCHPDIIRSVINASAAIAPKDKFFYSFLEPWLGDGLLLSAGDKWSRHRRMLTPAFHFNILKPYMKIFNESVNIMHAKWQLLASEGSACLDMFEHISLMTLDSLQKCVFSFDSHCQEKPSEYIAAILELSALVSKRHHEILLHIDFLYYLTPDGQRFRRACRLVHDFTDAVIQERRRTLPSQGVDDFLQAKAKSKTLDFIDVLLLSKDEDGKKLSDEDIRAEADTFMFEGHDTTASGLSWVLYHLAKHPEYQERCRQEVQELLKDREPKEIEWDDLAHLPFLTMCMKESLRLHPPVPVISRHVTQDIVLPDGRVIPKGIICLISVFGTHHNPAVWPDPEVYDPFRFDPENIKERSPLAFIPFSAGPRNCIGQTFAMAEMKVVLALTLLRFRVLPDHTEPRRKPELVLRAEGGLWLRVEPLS
Procedure, shortened: (§1)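 Microsomes (300 μg/ml) or rCYP4F2 (25 pmol/mL) were incubated with 100 μM arachidonic acid, 1 mM NADPH and test compound in 0.12 M potassium phosphate with 5 mM MgCl2 for 20 min at 37° C. 20-HETE was quantified by UPLC-MS/MS with 20-HETE-d6 internal standard and expressed as percent of vehicle (n=3).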

[1] = tested on: 20-HETE formation (CYP4) in RLM; assay: Inhibition of 20-HETE formation at 250 or 500 nM in RLM microsomal incubations; type: biochemical, rat; settings: RLM 300 μg/ml; for RLM % inh. @ 250 nM: 250 nM compound; for RLM % inh. @ 500 nM: 500 nM compound
Procedure, shortened: as §1

[2] = biological target: formation of EETs and DiHETs (epoxygenase activity) in HLM; assay: Selectivity: inhibition of EETs and DiHETs formation (epoxygenase activity) in HLM; type: biochemical, human; settings: for IC50: sum of EETs and DiHETs
Description: Selectivity of compounds for inhibition of 20-HETE formation vs inhibition of formation of 8,9-, 11,12-, 14,15-EET and 5,6-, 8,9-, 11,12-, 14,15-DiHETs was assessed via the simultaneous monitor of formation of 20-HETE and those metabolites under the UPLC-MS/MS assay conditions described above using HLM incubations and the same 12 test compound concentrations (0.1 nM-[…]) used for the IC50 determination experiments. At each of the 12 concentrations, the selectivity of 20-HETE inhibition over the other metabolites was compared. Epoxygenase activity was assessed by the sum of EETs and DiHETEs as percentage of control.

[3] = tested on: 20-HETE formation (CYP4) in HLM; assay: IC50 determination, 20-HETE formation in HLM; type: biochemical, human; settings: HLM 300 μg/ml, AA 100 μM, 12 concentrations
Procedure, shortened: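 Human or rat liver microsomes (300 μg/ml) with arachidonic acid 100 μM, NADPH 1 mM, compound at 12 concentrations (0.1 nM-50 μM) in phosphate/MgCl2 buffer, 20 min at 37 °C. 20-HETE quantified by UPLC-MS/MS against d6 internal standard, normalised to vehicle; IC50 by nonlinear regression.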

[4] = tested on: 20-HETE formation (CYP4) in RLM; assay: IC50 determination, 20-HETE formation in RLM; type: biochemical, rat; settings: RLM 300 μg/ml, AA 100 μM, 12 concentrations
Description: Microsomal incubations contained HLM, RLM (300 μg/ml), AA (100 μM), NADPH (1 mM) and test compounds at 12 concentrations (0.1 nM-50 μM) in a 1 ml total volume in microsomal incubation buffer (0.12 M potassium phosphate buffer containing 5 mM magnesium chloride). Reaction was started by adding NADPH to the incubates and was carried out at 37° C. in a shaking water bath for 20 min. Reaction was stopped by placing tubes on ice, followed by adding 12.5 μl 20-HETE-d6 as internal standard to each sample. Microsomal incubations were extracted with 3 ml ethyl ether twice, dried down under nitrogen gas and reconstituted in 125 μl 80:20 methanol:deionized H2O for analysis. 20-HETE formation was quantified using the validated UPLC-MS/MS assay described above and normalized by vehicle group. HET0016 (250 nM) was used as positive control. Incubates without NADPH group served as the negative control. IC50 was determined by fitting the dose-response curve using Graphpad Prism nonlinear regression.

Compound | inhibition at 0.25 µM (rCYP4F2) [%] | RLM % inh. @ 250 nM [1] [%] | IC50 [2] [nM] | IC50 [3] [µM] | inhibition at 0.5 µM (rCYP4F2) [%] | RLM % inh. @ 500 nM [1] [%] | EETs Inhibition, % @ 50,000 ([2]; at 50,000 (nM per column head)) | IC50 [4] [nM] | EETs Inhibition, % @ 10 μM ([2]; at 10 μM) [% @ 10 μM]
c1ccc(C2CCN(c3cn[nH]c3)CC2)cc1 [Compound 1, 4-Phenyl-1-(1H-pyrazol-4-yl)piperidine] | 78.5 | 27.40 | > 10000 | 0.19 |  |  |  |  | 
c1ccc(CC2CCN(c3cn[nH]c3)CC2)cc1 [Compound 3, 4-Benzyl-1-(1H-pyrazol-4-yl)piperidine] |  |  | > 25000 | 0.05 | 77 | 2.40 |  |  | 
COc1ccc(C2CCN(c3ccn[nH]3)CC2)cc1 [Compound 19, 4-(4-Methoxyphenyl)-1-(1H-pyrazol-5-yl)piperidine] |  |  | > 25000 | 0.14 | 41.4 | 31.80 |  |  | 
Cc1cccc(C2CCN(c3cn[nH]c3)CC2)c1 [Compound 34, 1-(1H-Pyrazol-4-yl)-4-(m-tolyl)piperidine] |  |  |  | 0.11 | 86 | 44.00 |  |  | 
c1ccc(C2CCN(c3ccn[nH]3)CC2)cc1 [Compound 54, 4-Phenyl-1-(1H-pyrazol-5-yl)piperidine] | 53.6 | 12.00 | > 50000 | 0.44 |  |  |  |  | 
Clc1ccc(CC2CCN(c3cn[nH]c3)CC2)cc1 [Compound 93, 4-(4-Chlorobenzyl)-1-(1H-pyrazol-4-yl)piperidine] |  |  |  | 0.017 | 97 | 64.30 |  | 120 | 50

The next lines start with the values.

inhibition at 0.25 µM (rCYP4F2) [%] | RLM % inh. @ 250 nM [1] [%] | IC50 [2] [nM] | IC50 [3] [µM] | inhibition at 0.5 µM (rCYP4F2) [%] | RLM % inh. @ 500 nM [1] [%] | EETs Inhibition, % @ 50,000 ([2]; at 50,000 (nM per column head)) | IC50 [4] [nM] | EETs Inhibition, % @ 10 μM ([2]; at 10 μM) [% @ 10 μM] | Compound
 |  |  | 0.07 | 67.7 | 25.90 | 3.1%@ 50,000 |  |  | COc1ccc(C2CCN(c3cn[nH]c3)CC2)cc1 [Compound 20, 4-(4-Methoxyphenyl)-1-(1H-pyrazol-4-yl)piperidine]
 |  |  | 0.1 | 58 | 52.00 |  |  |  | CC(=O)N(C)c1ccc(C2CCN(c3cn[nH]c3)CC2)cc1 [Compound 28, N-(4-(1-(1H-Pyrazol-4-yl)piperidin-4-yl)phenyl)-N-methylacetamide]
 |  | > 50 | 0.0542 | 96.2 | 49.60 |  | 720 |  | O=C1CCCN1Cc1ccc(C2CCN(c3cn[nH]c3)CC2)cc1 [Compound 83, 1-(4-(1-(1H-Pyrazol-4-yl)piperidin-4-yl)benzyl)pyrrolidin-2-one]
 |  | > 50 | 0.054 | 81.2 | 42.90 |  | 570 |  | O=C1CCCN1c1ccc(C2CCN(c3cn[nH]c3)CC2)cc1 [Compound 100, 1-(4-(1-(1H-Pyrazol-4-yl)piperidin-4-yl)phenyl)pyrrolidin-2-one]

Source: patent US12479816B2, “20-HETE formation inhibitors” (UNIVERSITY OF PITTSBURGH—OF THE COMMONWEALTH SYSTEM OF …, priority 2019, dated 2025)
